Measurements: article PMC12990037, “Discovery of Two Structurally Distinct Classes of Inhibitors Targeting the Nuclease MUS81 and Enhancing Efficacy of Chemotherapy in Cancer Cells” (Journal of Medicinal Chemistry, 2026)

Columns and labels:
U2OS cells [1] = assay: EdU/PI cell cycle assay; format: cell-based; details: CPT 100 μM for the last 16 h
Description: (§1) Given these promising findings, we further investigated the specificity of MU262 and MU876 and potential short-term cytotoxicity. To mirror the treatment duration used in BIR and HR assays, U2OS cells were exposed to the inhibitors or siRNA for 3 days.
U2OS WT cells (300,000) were seeded in a 6-well plate; a subset of them was treated with either control siRNA or siRNA targeting MUS81. After adhesion, cells were treated with the respective inhibitors for 72 h during which CPT ([…], Sigma-Aldrich) was added for the last 16 h and 10 μM EdU (Sigma-Aldrich) was added for the last 1 h. Cells were then harvested and stained by using the Click-iT EdU Alexa Fluor 647 Flow Cytometry Assay Kit (Thermo Fisher Scientific). Finally, cells were resuspended in 1xPBS containing 5 μg/mL of propidium iodide (PI) and analyzed using a BD FACSVerse flow cytometer (Becton Dickinson) and FlowJo software (BD Life Sciences). At least 20,000 cells were used for each measurement, and experiments were performed in duplicates.

U2OS cells [2] = assay: Annexin V apoptotic assay; format: cell-based; details: CPT 100 μM for the last 2 h
Description: as §1
U2OS WT cells (300,000) were seeded in a 6-well plate, a subset of them was treated with either control siRNA or siRNA targeting MUS81. After adhesion, cells were treated with the respective inhibitors for 72 h during which CPT (100 μM, Sigma-Aldrich) was added for the last 2 h. Cells were harvested, washed in ice-cold PBS, and collected by centrifugation at 500g for 5 min. Cells were simultaneously stained with FITC-labeled annexin V antibody (556419, Becton Dickinson) and PI (5 μL) at room temperature for 15 min, protected from light. Stained cells were analyzed using a BD FACSVerse flow cytometer (Becton Dickinson) and FlowJo software (BD Life Sciences). At least 20,000 cells were used for each measurement, and experiments were performed in duplicates.

MUS81–EME1 = biological target: T1, MUS81–EME1 (Homo sapiens, UniProt Q96NY9); assay: Gel-based in vitro nuclease assay: cleavage of 3′flap DNA by purified MUS81–EME1; format: biochemical; details: for activity in the in vitro assay: negative control compounds
T1 construct: The MUS81–EME1 full-length expression plasmid was obtained from Stephen C; West; made in house; host or cells: Escherichia coli
T1 sequence (Q96NY9 1-551): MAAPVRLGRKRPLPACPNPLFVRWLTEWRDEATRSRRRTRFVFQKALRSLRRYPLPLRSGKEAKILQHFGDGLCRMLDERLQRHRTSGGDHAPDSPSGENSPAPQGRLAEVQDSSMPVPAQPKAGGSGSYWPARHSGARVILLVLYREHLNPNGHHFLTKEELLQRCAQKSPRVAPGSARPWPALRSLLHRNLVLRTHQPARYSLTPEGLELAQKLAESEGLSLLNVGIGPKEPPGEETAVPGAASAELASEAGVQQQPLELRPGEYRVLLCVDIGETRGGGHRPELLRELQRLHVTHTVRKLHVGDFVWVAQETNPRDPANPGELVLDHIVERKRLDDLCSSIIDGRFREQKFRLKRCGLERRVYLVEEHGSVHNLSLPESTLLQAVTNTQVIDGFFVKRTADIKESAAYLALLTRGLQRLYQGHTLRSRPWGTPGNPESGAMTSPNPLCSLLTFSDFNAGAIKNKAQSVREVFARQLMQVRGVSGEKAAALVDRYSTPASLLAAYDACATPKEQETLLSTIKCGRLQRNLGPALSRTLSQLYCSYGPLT
T1 sequence (Q96AY2 1-570 partner): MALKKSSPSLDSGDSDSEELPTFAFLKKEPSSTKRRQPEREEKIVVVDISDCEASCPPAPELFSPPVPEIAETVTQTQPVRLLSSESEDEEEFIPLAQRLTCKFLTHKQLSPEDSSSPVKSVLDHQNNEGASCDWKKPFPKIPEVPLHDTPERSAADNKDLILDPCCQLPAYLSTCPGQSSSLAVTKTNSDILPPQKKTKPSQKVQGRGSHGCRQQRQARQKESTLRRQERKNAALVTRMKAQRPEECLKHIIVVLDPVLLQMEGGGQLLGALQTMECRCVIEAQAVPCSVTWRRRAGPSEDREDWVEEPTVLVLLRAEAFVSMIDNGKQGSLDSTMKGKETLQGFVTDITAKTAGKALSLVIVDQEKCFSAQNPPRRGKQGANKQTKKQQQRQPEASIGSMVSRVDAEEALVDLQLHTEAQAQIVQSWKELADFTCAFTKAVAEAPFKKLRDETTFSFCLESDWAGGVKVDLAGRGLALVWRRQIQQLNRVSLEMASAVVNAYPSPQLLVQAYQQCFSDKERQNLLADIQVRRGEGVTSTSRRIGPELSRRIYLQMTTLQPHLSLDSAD
Description: To identify the small-molecule inhibitors of MUS81, we used two complementary screening approaches. The first involved a structure-based virtual screening, where over 140,000 small molecules were docked into the active site of MUS81 using AutoDock Vina software. […] The cleavage by purified MUS81-EME1 was monitored by gel electrophoresis, and the compound activity was quantified by measuring the reduction in cleavage product intensity.
Nuclease assays were performed in reaction buffer containing 50 mM Tris pH 7.5, 10 mM MgCl2, 1 mM DTT, 85 mM KCl, and 20% glycerol. Purified MUS81–EME1 (1 nM) was preincubated in 9 μL reaction with indicated concentrations of inhibitors for 15 min at room temperature, followed by the addition of 3 nM of a 3′flap DNA substrate (listed in Supplementary Table 9) and a further incubation for 15 min at 37 °C. The final concentration of DMSO in the reactions was 2%. The reactions were stopped by the addition of 0.1% SDS and 500 μg/mL of proteinase K, followed by incubation for 5 min at 37 °C. […] The fluorescent DNA was visualized using a FLA-9000 (Fujifilm). Bands corresponding to cleaved substrates were selected for quantification using the MultiGauge 3.2 software. Final data represent integrated density of these bands with background subtraction. Fitting of the data with sigmoid curves was performed in OriginPro (OriginLab).

[3] = Solubility in aqueous DMSO; format: physicochemical
[4] = biological target: T2, MUS81–EME1 binding to 3′ flap DNA substrate (Homo sapiens, UniProt Q96NY9); assay: Electrophoretic mobility shift assay (EMSA); details: MUS81–EME1 160 nM, no MgCl2
T2 construct: The MUS81–EME1 full-length expression plasmid was obtained from Stephen C; West; made in house; host or cells: Escherichia coli
T2 sequence (Q96NY9 1-551): T1 sequence (Q96NY9 1-551)
T2 sequence (Q96AY2 1-570 partner): T1 sequence (Q96AY2 1-570 partner)
Description: (A,B) Purified MUS81–EME1 (160 nM) was incubated with increasing concentrations of MU262, MU876, or their respective control analogues, followed by the addition of 3 nM fluorescently labeled 3′ flap DNA substrate. MgCl2 was omitted from the reaction buffer to prevent substrate cleavage. The reaction products were resolved on a native PAGE gel. The lower band represents a free DNA substrate, while the upper smear corresponds to the MUS81–DNA complex. n = 3.
Purified MUS81–EME1 (160 nM) was incubated in a modified assay buffer without MgCl2 (50 mM Tris–HCl pH 7.4, 150 mM NaCl, and 0.05% Tween-20) with 15 nM of a 3′flap DNA substrate (listed in Supplementary Table 5) in the absence or presence of selected inhibitors at RT for 10 min, followed by an incubation at 25 °C for 10 min. The reaction was stopped on ice and products were resolved using native PAGE (7.5% acrylamide gel in 0.5% TBE) at 4 °C for 50 min (6.5 V/cm). Gel images were captured using a FLA-9000 (Fujifilm) and Typhoon (Amersham) scanners and quantified with Multi Gauge V3.2 software (Fujifilm).

| Structure (SMILES) | IC50 (MUS81–EME1; Table 1, in vitro) [µM] | IC50 (MUS81–EME1; Table 2, in vitro) [µM] | other results |
| --- | --- | --- | --- |
| CC[C@@]1(O)C(=O)OCc2c1cc1n(c2=O)Cc2cc3ccccc3nc2-1 [CPT, camptothecin, reference compound] | – | – | cell cycle profile (U2OS cells [1]): reduced the proportion of S phase cells; apoptosis (Annexin V staining) (U2OS cells [2]): robust apoptosis |
| Nc1c(-c2nc3ccccc3[nH]2)nnc2ccnn12 [Compound 3] | > 50 | – | – |
| Nc1c(-c2nc3ccccc3[nH]2)nnc2c(-c3ccc(F)cc3)cnn12 [Compound 4] | > 50 | – | – |
| CCc1cc2nnc(-c3nc4ccccc4[nH]3)c(N)n2n1 [Compound 5] | > 5 | – | – |
| CCc1nn2c(N)c(-c3nc4ccccc4[nH]3)nnc2c1-c1ccc(OC)cc1 [Compound 7] | > 25 | – | – |
| Nc1c(-c2nc3ccccc3[nH]2)nnc2cc(-c3cccc4ccccc34)nn12 [Compound 12] | 1.8 | – | solubility in aqueous DMSO [3]: only sparingly soluble in aqueous DMSO |
| Nc1c(-c2nc3ccccc3[nH]2)nnc2cc(-c3ccccc3Oc3ccccc3)nn12 [Compound 13] | – | – | solubility in aqueous DMSO [3]: only sparingly soluble in aqueous DMSO |
| Nc1c(-c2nc3ccccc3[nH]2)nnc2cc(-c3ccc4ccccc4c3)nn12 [Compound 14] | – | – | solubility in aqueous DMSO [3]: only sparingly soluble in aqueous DMSO |
| Nc1c(-c2nc3ccccc3[nH]2)nnc2cc(-c3ccccc3)nn12 [Compound 15] | – | – | solubility in aqueous DMSO [3]: only sparingly soluble in aqueous DMSO |
| CCc1nn2cc(-c3nc4ccccc4[nH]3)nnc2c1-c1ccc(F)cc1 [Compound 16] | > 10 | – | – |
| CCc1nn2c(C)c(-c3nc4ccccc4[nH]3)nnc2c1-c1ccc(F)cc1 [Compound 17] | > 10 | – | activity in the in vitro assay (MUS81–EME1): no activity; effect on MUS81–EME1 binding to 3′ flap DNA (EMSA) [4]: neither MU262 nor its inactive analogue MU1066 disrupted the MUS81–DNA interaction |
| CCc1nn2c(O)c(-c3ncccn3)nnc2c1-c1ccc(F)cc1 [Compound 20] | > 40 | – | – |
| CCc1nn2c(N)c(C(N)=O)nnc2c1-c1ccc(F)cc1 [Compound 21] | > 50 | – | – |
| CCc1nn2c(N)c(-c3nc4ccccc4n3Cc3ccccc3)nnc2c1-c1ccc(F)cc1 [Compound 22] | 8 | – | – |
| CCc1nn2c(O)c(-c3nc4ccccc4n3CCN(C)C)nnc2c1-c1ccc(F)cc1 [Compound 23] | > 10 | – | – |
| CCc1nn2c(O)c(-c3nc4ccccc4n3CCN3CCOCC3)nnc2c1-c1ccc(F)cc1 [Compound 24] | > 10 | – | – |
| CCc1nn2c(O)c(-c3nccn3C)nnc2c1-c1ccc(F)cc1 [Compound 25] | > 40 | – | activity in the in vitro assay (MUS81–EME1): no activity |
| CCc1nn2c(N)c(-c3ncc[nH]3)nnc2c1-c1ccc(F)cc1 [Compound 27] | – | – | solubility in aqueous DMSO [3]: less soluble in aqueous DMSO |
| Cc1cc(=O)[nH]c(-n2nc(C3CCCCC3)cc2NC(=O)c2cc(-c3ccccc3)on2)n1 [Compound 34] | – | > 10 | – |
| Cc1cc(=O)[nH]c(-n2nc(-c3ccccc3)c(C)c2NC(=O)c2cc(-c3ccccc3)on2)n1 [Compound 35] | – | > 10 | – |
| Cc1cc(=O)[nH]c(-n2nc(-c3ccccc3)cc2NC(=O)c2cc(C3CCCCC3)on2)n1 [Compound 37] | – | > 10 | – |
| Cc1cc(=O)[nH]c(-n2nc(-c3ccccc3)cc2NC(=O)c2cc(-c3ccccc3Br)on2)n1 [Compound 38] | – | > 10 | – |
| COc1ccc(-c2cc(C(=O)Nc3cc(-c4ccccc4)nn3-c3nc(C)cc(=O)[nH]3)no2)cc1 [Compound 40] | – | > 10 | – |
| Cc1cc(=O)[nH]c(-n2nc(-c3ccccc3)cc2NC(=O)c2csc(-c3ccccc3)n2)n1 [Compound 42] | – | > 10 | – |
| Cc1cc(=O)[nH]c(-n2nc(-c3ccccc3)cc2N(C)C(=O)c2cc(-c3ccccc3)on2)n1 [Compound 45] | – | > 10 | activity in the in vitro assay (MUS81–EME1): no activity; effect on MUS81–EME1 binding to 3′ flap DNA (EMSA) [4]: no significant effect |
| Cn1nc(-c2ccccc2)cc1NC(=O)c1cc(-c2ccccc2)on1 [Compound 46] | – | > 10 | – |
| O=C(Nc1cc(-c2ccccc2)nn1-c1ccccc1)c1cc(-c2ccccc2)on1 [Compound 47] | – | > 10 | – |
| O=C(Nc1cc(-c2ccccc2)nn1-c1ncccn1)c1cc(-c2ccccc2)on1 [Compound 48] | – | > 10 | – |
| COc1cc(C)nc(-n2nc(-c3ccccc3)cc2NC(=O)c2cc(-c3ccccc3)on2)n1 [Compound 49] | – | > 10 | – |
| COCc1cc(=O)[nH]c(-n2nc(-c3ccccc3)cc2NC(=O)c2cc(-c3ccccc3)on2)n1 [Compound 51] | – | > 10 | – |
